Experiments:
PSMA+ PC3 PIP cells = assay: Clonogenic survival assay; format: cell-based, human; conditions: 48 h treatment at 37 °C
Experimental: Cells (200–1000) were seeded in 60 mm culture dishes. Each radioligand (^177Lu-L1, ^177Lu-Alb-L2, ^177Lu-Alb-L5) was diluted in a prewarmed medium at different concentrations (0, 0.37, 1.85, 3.7, 18.5, 37, 185, and 370 kBq/mL) and incubated with the cells for 48 h, as we previously reported. The radiolabeled compound was replaced with fresh medium, and cells were incubated for 2 weeks or until colonies had at least 50 cells. The colonies were stained with crystal violet and counted, and the surviving fraction was normalized to the control plating efficiency, as previously described.

patients = test system: patients; design: method as in PMID 32949253; conditions: than 177Lu-EB-PSMA-617 and 177Lu-PSMA-ALB-56; clinical studies; cited from earlier work
[1] = test system: patients with metastatic castration-resistant prostate cancer; design: method as in PMID 34161051, PMID 34385339; conditions: treatment group of randomized patients; cited from earlier work

SMILES	Activity to reduce cell survival to 37% (A0) (PSMA+ PC3 PIP cells) [kBq/mL]	Concentration of radioactivity for complete cell killing (PSMA+ PC3 PIP cells) [kBq/mL]	Kidney-absorbed dose, fold lower (patients)	Median overall survival [1] [months]
O=C(O)CCC(NC(=O)NC(CCCCN(Cc1ccc(Br)cc1)C(=O)CCCCNC(=O)CN1CCN(CC(=O)O)CCN(CC(=O)O)CCN(CC(=O)O)CC1)C(=O)O)C(=O)O (stereo not shown) [177Lu-L1, metal not drawn]	18.5	370		
O=C([O-])CN1CCN(CC(=O)[O-])CCN(CC(=O)NCC2CCC(C(=O)N[C@@H](Cc3ccc4ccccc4c3)C(=O)NCCCC[C@H](NC(=O)N[C@@H](CCC(=O)O)C(=O)O)C(=O)O)CC2)CCN(CC(=O)[O-])CC1.[177Lu+3] (stereo partly shown) [177Lu-PSMA-617]			~ 4 fold	15.3

Reference: article PMC10459686, “Preclinical Evaluation of a New Series of Albumin-Binding ^177Lu-Labeled PSMA-Based Low-Molecular-Weight Radiotherapeutics” (Molecules, 2023)
